# Test results reported in ChEMBL document CHEMBL3885881, “DrugMatrix”.
# Organism: Rattus norvegicus
# Test: DrugMatrix - Regimen: Daily Repeat
# Type: toxicity, organism-based, Sprague-Dawley
# Parameters: regimen Daily Repeat, gender Male, age 6-8 weeks
# Details: in vivo, po, route oral GAVAGE, […]; for ABSOLUTE BASOPHIL / ABSOLUTE EOSINOPHIL / ABSOLUTE LYMPHOCYTE / ABSOLUTE MONOCYTE / ABSOLUTE SEGMENTED NEUTROPHIL / BASOPHIL / EOSINOPHIL / ERYTHROCYTE COUNT / HEMATOCRIT / HEMOGLOBIN / LEUKOCYTE COUNT / LYMPHOCYTE / MEAN CORPUSCULAR HEMOGLOBIN / MEAN CORPUSCULAR HEMOGLOBIN CONCENTRATION / MEAN CORPUSCULAR VOLUME / MONOCYTE / NEUTROPHIL / NUCLEATED RED BLOOD CELLS / PLATELET COUNT: tissue Blood; for ALANINE AMINOTRANSFERASE / ALBUMIN / ALKALINE PHOSPHATASE / ASPARTATE AMINOTRANSFERASE / BLOOD UREA NITROGEN / CARBON DIOXIDE / CHLORIDE / CHOLESTEROL / CREATINE PHOSPHOKINASE / CREATININE / GLUCOSE / LACTATE DEHYDROGENASE / LIPASE / PHOSPHORUS / POTASSIUM / SODIUM / TOTAL BILIRUBIN / TOTAL PROTEIN / URIC ACID: tissue Plasma
# [1] = 75 mg/kg, 72 h, dose level High, time 3 day
# [2] = 75 mg/kg, 120 h, dose level High, time 5 day
# [3] = 72 h, dose 7.5 mg/Kg, dose level Low, time 3 day
# [4] = 120 h, dose 7.5 mg/Kg, dose level Low, time 5 day
compound,measurement,setting,value
C[C@@H]1CC[C@@]2(OC1)O[C@H]1[C@@H](O)[C@H]3[C@@H]4CC[C@H]5C[C@@H](O[C@@H]6O[C@H](CO)[C@H](O[C@@H]7O[C@H](CO)C(O)[C@H](O[C@@H]8OC[C@@H](O)[C@H](O)[C@H]8O)[C@H]7O[C@@H]7O[C@H](CO)[C@H](O)[C@H](O[C@@H]8O[C@H](CO)[C@@H](O)[C@H](O)[C@H]8O)[C@H]7O)[C@H](O)[C@H]6O)[C@H](O)C[C@]5(C)[C@H]4CC[C@]3(C)[C@H]1[C@@H]2C (some centres not stated) [DIGITONIN],ABSOLUTE BASOPHIL,[1],0 CELLS/uL
same,ABSOLUTE EOSINOPHIL,[1],39.67 CELLS/uL
same,ABSOLUTE LYMPHOCYTE,[1],12631.67 CELLS/uL
same,ABSOLUTE MONOCYTE,[1],0 CELLS/uL
same,ABSOLUTE SEGMENTED NEUTROPHIL,[1],1028.67 CELLS/uL
same,BASOPHIL,[1],0%
same,EOSINOPHIL,[1],0.33%
same,ERYTHROCYTE COUNT,[1],5.46 x10E6/uL
same,HEMATOCRIT,[1],34.9%
same,HEMOGLOBIN,[1],13.03 G/DL
same,LEUKOCYTE COUNT,[1],13.7 x10E3/uL
same,LYMPHOCYTE,[1],92.33%
same,MEAN CORPUSCULAR HEMOGLOBIN,[1],23.83 pg
same,MEAN CORPUSCULAR HEMOGLOBIN CONCENTRATION,[1],37.37 G/DL
same,MEAN CORPUSCULAR VOLUME,[1],63.8 fL
same,MONOCYTE,[1],0%
same,NEUTROPHIL,[1],7.33%
same,NUCLEATED RED BLOOD CELLS,[1],0 /100WBC
same,PLATELET COUNT,[1],1082.67 x10E3/uL
same,ALANINE AMINOTRANSFERASE,[1],64 u/L
same,ALBUMIN,[1],4.23 G/DL
same,ALKALINE PHOSPHATASE,[1],395.33 u/L
same,ASPARTATE AMINOTRANSFERASE,[1],86.33 u/L
same,BLOOD UREA NITROGEN,[1],16.67 mg/dL
same,CARBON DIOXIDE,[1],25.33 mmol/L
same,CHLORIDE,[1],102 MEQ/L
same,CHOLESTEROL,[1],78 mg/dL
same,CREATINE PHOSPHOKINASE,[1],233.67 u/L
same,CREATININE,[1],0.17 mg/dL
same,GLUCOSE,[1],178.33 mg/dL
same,LACTATE DEHYDROGENASE,[1],118.33 u/L
same,LIPASE,[1],9 u/L
same,PHOSPHORUS,[1],13.13 mg/dL
same,POTASSIUM,[1],6.32 MEQ/L
same,SODIUM,[1],144.17 MEQ/L
same,TOTAL BILIRUBIN,[1],0.23 mg/dL
same,TOTAL PROTEIN,[1],5.93 G/DL
same,URIC ACID,[1],2.1 mg/dL
same,ABSOLUTE BASOPHIL,[2],0 CELLS/uL
same,ABSOLUTE EOSINOPHIL,[2],43.33 CELLS/uL
same,ABSOLUTE LYMPHOCYTE,[2],6877 CELLS/uL
same,ABSOLUTE MONOCYTE,[2],37 CELLS/uL
same,ABSOLUTE SEGMENTED NEUTROPHIL,[2],776 CELLS/uL
same,BASOPHIL,[2],0%
same,EOSINOPHIL,[2],0.67%
same,ERYTHROCYTE COUNT,[2],5.49 x10E6/uL
same,HEMATOCRIT,[2],35.43%
same,HEMOGLOBIN,[2],13.27 G/DL
same,LEUKOCYTE COUNT,[2],7.73 x10E3/uL
same,LYMPHOCYTE,[2],89.33%
same,MEAN CORPUSCULAR HEMOGLOBIN,[2],24.17 pg
same,MEAN CORPUSCULAR HEMOGLOBIN CONCENTRATION,[2],37.47 G/DL
same,MEAN CORPUSCULAR VOLUME,[2],64.5 fL
same,MONOCYTE,[2],0.33%
same,NEUTROPHIL,[2],9.67%
same,NUCLEATED RED BLOOD CELLS,[2],0 /100WBC
same,PLATELET COUNT,[2],1285 x10E3/uL
same,ALANINE AMINOTRANSFERASE,[2],65.67 u/L
same,ALBUMIN,[2],4.4 G/DL
same,ALKALINE PHOSPHATASE,[2],444.33 u/L
same,ASPARTATE AMINOTRANSFERASE,[2],85.67 u/L
same,BLOOD UREA NITROGEN,[2],15.67 mg/dL
same,CARBON DIOXIDE,[2],24 mmol/L
same,CHLORIDE,[2],100 MEQ/L
same,CHOLESTEROL,[2],62 mg/dL
same,CREATINE PHOSPHOKINASE,[2],202.67 u/L
same,CREATININE,[2],0.15 mg/dL
same,GLUCOSE,[2],146.67 mg/dL
same,LACTATE DEHYDROGENASE,[2],137.67 u/L
same,LIPASE,[2],8.33 u/L
same,PHOSPHORUS,[2],10.97 mg/dL
same,POTASSIUM,[2],5.88 MEQ/L
same,SODIUM,[2],147.6 MEQ/L
same,TOTAL BILIRUBIN,[2],0.23 mg/dL
same,TOTAL PROTEIN,[2],6 G/DL
same,URIC ACID,[2],0.83 mg/dL
same,ABSOLUTE BASOPHIL,[3],0 CELLS/uL
same,ABSOLUTE EOSINOPHIL,[3],77.33 CELLS/uL
same,ABSOLUTE LYMPHOCYTE,[3],10391.33 CELLS/uL
same,ABSOLUTE MONOCYTE,[3],34.33 CELLS/uL
same,ABSOLUTE SEGMENTED NEUTROPHIL,[3],1397 CELLS/uL
same,BASOPHIL,[3],0%
same,EOSINOPHIL,[3],0.67%
same,ERYTHROCYTE COUNT,[3],5.69 x10E6/uL
same,HEMATOCRIT,[3],35.5%
same,HEMOGLOBIN,[3],13.27 G/DL
same,LEUKOCYTE COUNT,[3],11.9 x10E3/uL
same,LYMPHOCYTE,[3],87.33%
same,MEAN CORPUSCULAR HEMOGLOBIN,[3],23.33 pg
same,MEAN CORPUSCULAR HEMOGLOBIN CONCENTRATION,[3],37.4 G/DL
same,MEAN CORPUSCULAR VOLUME,[3],62.47 fL
same,MONOCYTE,[3],0.33%
same,NEUTROPHIL,[3],11.67%
same,NUCLEATED RED BLOOD CELLS,[3],0 /100WBC
same,PLATELET COUNT,[3],1266.67 x10E3/uL
same,ALANINE AMINOTRANSFERASE,[3],59.33 u/L
same,ALBUMIN,[3],4.13 G/DL
same,ALKALINE PHOSPHATASE,[3],424 u/L
same,ASPARTATE AMINOTRANSFERASE,[3],79 u/L
same,BLOOD UREA NITROGEN,[3],14 mg/dL
same,CARBON DIOXIDE,[3],25.67 mmol/L
same,CHLORIDE,[3],100.67 MEQ/L
same,CHOLESTEROL,[3],70.67 mg/dL
same,CREATINE PHOSPHOKINASE,[3],187 u/L
same,CREATININE,[3],0.18 mg/dL
same,GLUCOSE,[3],156.33 mg/dL
same,LACTATE DEHYDROGENASE,[3],100.33 u/L
same,LIPASE,[3],8.67 u/L
same,PHOSPHORUS,[3],12.73 mg/dL
same,POTASSIUM,[3],6.51 MEQ/L
same,SODIUM,[3],145.03 MEQ/L
same,TOTAL BILIRUBIN,[3],0.23 mg/dL
same,TOTAL PROTEIN,[3],5.73 G/DL
same,URIC ACID,[3],2.23 mg/dL
same,ABSOLUTE BASOPHIL,[4],0 CELLS/uL
same,ABSOLUTE EOSINOPHIL,[4],102 CELLS/uL
same,ABSOLUTE LYMPHOCYTE,[4],14620 CELLS/uL
same,ABSOLUTE MONOCYTE,[4],219 CELLS/uL
same,ABSOLUTE SEGMENTED NEUTROPHIL,[4],1792.33 CELLS/uL
same,BASOPHIL,[4],0%
same,EOSINOPHIL,[4],0.67%
same,ERYTHROCYTE COUNT,[4],5.47 x10E6/uL
same,HEMATOCRIT,[4],35.23%
same,HEMOGLOBIN,[4],13.57 G/DL
same,LEUKOCYTE COUNT,[4],16.73 x10E3/uL
same,LYMPHOCYTE,[4],87.33%
same,MEAN CORPUSCULAR HEMOGLOBIN,[4],24.83 pg
same,MEAN CORPUSCULAR HEMOGLOBIN CONCENTRATION,[4],38.5 G/DL
same,MEAN CORPUSCULAR VOLUME,[4],64.37 fL
same,MONOCYTE,[4],1.33%
same,NEUTROPHIL,[4],10.67%
same,NUCLEATED RED BLOOD CELLS,[4],0 /100WBC
same,PLATELET COUNT,[4],1216 x10E3/uL
same,ALANINE AMINOTRANSFERASE,[4],57.33 u/L
same,ALBUMIN,[4],4.3 G/DL
same,ALKALINE PHOSPHATASE,[4],437 u/L
same,ASPARTATE AMINOTRANSFERASE,[4],80.33 u/L
same,BLOOD UREA NITROGEN,[4],14.67 mg/dL
same,CARBON DIOXIDE,[4],28.67 mmol/L
same,CHLORIDE,[4],100.67 MEQ/L
same,CHOLESTEROL,[4],53.67 mg/dL
same,CREATINE PHOSPHOKINASE,[4],222.67 u/L
same,CREATININE,[4],0.22 mg/dL
same,GLUCOSE,[4],160.33 mg/dL
same,LACTATE DEHYDROGENASE,[4],207.67 u/L
same,LIPASE,[4],8 u/L
same,PHOSPHORUS,[4],11.63 mg/dL
same,POTASSIUM,[4],6.09 MEQ/L
same,SODIUM,[4],144.37 MEQ/L
same,TOTAL BILIRUBIN,[4],0.2 mg/dL
same,TOTAL PROTEIN,[4],6.03 G/DL
same,URIC ACID,[4],1.47 mg/dL
